# Data taken from US20100168031A1, “Lat peptides and their use in assays for identifying immunosuppressants” (priority 2000, published 2010).
# Numbered stars: 1 amine (or outer) side, 2 acyl side, 3 side chain; on linkers, the order of the positions; unused ones are H or OH. Peptide text beside a SMILES is read from it. Suc = O=C(CCC(=O)[*:2])[*:1]
# Biological target: T1, ZAP-70 (Homo sapiens, UniProt P43403)
# T1 construct: A nucleic acid encoding full-length human ZAP-70 (GenBank #L05148); hexa-histidine (N); made in house; host or cells: Sf9 insect cells (baculovirus)
# T1 sequence (P43403 1-619): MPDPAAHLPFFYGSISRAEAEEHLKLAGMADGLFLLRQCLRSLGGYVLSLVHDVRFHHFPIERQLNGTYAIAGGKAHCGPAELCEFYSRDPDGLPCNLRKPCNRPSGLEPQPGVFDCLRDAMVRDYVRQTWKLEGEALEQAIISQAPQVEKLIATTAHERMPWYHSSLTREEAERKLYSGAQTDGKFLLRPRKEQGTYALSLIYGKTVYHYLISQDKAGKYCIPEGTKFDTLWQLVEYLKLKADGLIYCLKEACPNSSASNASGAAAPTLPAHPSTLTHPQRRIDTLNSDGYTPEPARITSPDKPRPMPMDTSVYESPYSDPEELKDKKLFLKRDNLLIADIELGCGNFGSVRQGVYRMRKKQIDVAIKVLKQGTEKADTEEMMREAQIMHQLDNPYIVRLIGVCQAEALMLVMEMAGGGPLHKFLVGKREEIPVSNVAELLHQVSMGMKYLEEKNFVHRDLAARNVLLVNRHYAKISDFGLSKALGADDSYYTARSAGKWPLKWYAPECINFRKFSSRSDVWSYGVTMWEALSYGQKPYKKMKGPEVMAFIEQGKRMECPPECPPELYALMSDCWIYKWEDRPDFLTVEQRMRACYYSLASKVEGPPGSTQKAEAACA
# Assay: Phosphorylation of compounds of formula I by ZAP-70 measured in a competitive assay (Example C5)
# Format: biochemical
# Details: non-biotinylated peptide competing with biotinylated SEQ ID NO:12; Lck-activated ZAP-70, PP2 added, 4 hours at RT; read-out: IC50, inhibition of the phosphorylation of SEQ ID NO:12 by ZAP-70
# Procedure: 80 nM ZAP-70 are incubated with 80 nM Lck and 4 μM ATP in ZAP-70 kinase buffer for 1 hour at RT in a siliconized polypropylene tube. Then, the selective Lck inhibitor PP2 (see Example C2) is added (final concentration 1.2 μM) and incubated for further 10 min.
# Ten μl of this solution is mixed with 10 μl biotinylated compound of e.g. SEQ ID NO:12 (1 μM) and 20 μl of the non-biotinylated peptides of compounds of formula I, e.g. by SEQ ID NO:21, SEQ ID NO:15, SEQ ID NO:16 or SEQ ID NO:17 (serial dilution 0.28 to 200 μM) and incubated for 4 hours at RT. Termination of the kinase reaction, detection phase and determination of fluorescence is performed as described in Example C1.
row,Compound,IC50 [µM]
1,"Ac-DYENL-NH2 [SEQ ID NO:17, acetyl-Asp-Tyr-Glu-Asn-Leu-NH2]",0.6 to 21
2,"Ac-DYENLQELN-OH [SEQ ID NO:15, acetyl-Asp-Tyr-Glu-Asn-Leu-Gln-Glu-Leu-Asn-OH]",0.6 to 21
3,"Ac-EEGAPDYENL-NH2 [SEQ ID NO:16, acetyl-Glu-Glu-Gly-Ala-Pro-Asp-Tyr-Glu-Asn-Leu-NH2]",0.6 to 21
4,"Ac-EEGAPDYENLQELN-OH [SEQ ID NO:21, acetyl-Glu-Glu-Gly-Ala-Pro-Asp-Tyr-Glu-Asn-Leu-Gln-Glu-Leu-Asn-OH]",0.6 to 21

# Second part, the compound after the results:
row,IC50 [µM],Compound
1,0.6 to 21,"CC(C)C[C@H](NC(=O)[C@H](CC(N)=O)NC(=O)[C@H](CCC(=O)O)NC(=O)[C@H](Cc1ccc(O)cc1)NC(=O)[C@H](CC(=O)O)NC(=O)CCC(=O)O)C(N)=O [SEQ ID NO:22, HOOC-CH2-CH2-CO-Asp-Tyr-Glu-Asn-Leu-NH2] (Suc-DYENL-NH2)"
2,0.6 to 21,"CC(C)C[C@H](NC(=O)[C@H](CC(N)=O)NC(=O)[C@H](CCC(=O)O)NC(=O)[C@H](Cc1ccc(O)cc1)NC(=O)[C@H](CC(=O)O)NCC(=O)O)C(N)=O [SEQ ID NO:23, HOOC-CH2-Asp-Tyr-Glu-Asn-Leu-NH2]"
3,0.6 to 21,"CC(C)C[C@H](NC(=O)[C@H](Cc1ccccc1)NC(=O)[C@H](CCC(=O)O)NC(=O)[C@H](Cc1ccc(O)cc1)NC(=O)[C@H](CC(=O)O)NC(=O)CCC(=O)O)C(N)=O [SEQ ID NO:24, HOOC-CH2-CH2-CO-Asp-Tyr-Glu-Phe-Leu-NH2] (Suc-DYEFL-NH2)"
